Data published in ChEMBL document CHEMBL5126678, “A New Naphthopyran Derivative Combines c-Myb Inhibition, Microtubule-Targeting Effects, and Antiangiogenic Properties” (ACS Med Chem Lett, 2022).
The source made the active and inactive calls. No cut-off for these calls is given here.

Experiments:
[1] = Effect on angiogenic activity in 24 hrs post-fertilized fil1/EGFP transgenic zebrafish embryo assessed as subintestinal vessel area at 100 nM measured after 48 hrs by fluorescence microscopy (reference value: 100%); assay type: toxicity, Danio rerio; conditions: 0.1 µM
[2] = target: Transcriptional activator Myb (Homo sapiens, UniProt P10242); assay: Inhibition of c-Myb (unknown origin) expressed in HEK293T cells measured after 16 hrs by steady-glo luciferase reporter gene assay; assay type: cell-based
Transcriptional activator Myb, sequence (P10242 whole entry): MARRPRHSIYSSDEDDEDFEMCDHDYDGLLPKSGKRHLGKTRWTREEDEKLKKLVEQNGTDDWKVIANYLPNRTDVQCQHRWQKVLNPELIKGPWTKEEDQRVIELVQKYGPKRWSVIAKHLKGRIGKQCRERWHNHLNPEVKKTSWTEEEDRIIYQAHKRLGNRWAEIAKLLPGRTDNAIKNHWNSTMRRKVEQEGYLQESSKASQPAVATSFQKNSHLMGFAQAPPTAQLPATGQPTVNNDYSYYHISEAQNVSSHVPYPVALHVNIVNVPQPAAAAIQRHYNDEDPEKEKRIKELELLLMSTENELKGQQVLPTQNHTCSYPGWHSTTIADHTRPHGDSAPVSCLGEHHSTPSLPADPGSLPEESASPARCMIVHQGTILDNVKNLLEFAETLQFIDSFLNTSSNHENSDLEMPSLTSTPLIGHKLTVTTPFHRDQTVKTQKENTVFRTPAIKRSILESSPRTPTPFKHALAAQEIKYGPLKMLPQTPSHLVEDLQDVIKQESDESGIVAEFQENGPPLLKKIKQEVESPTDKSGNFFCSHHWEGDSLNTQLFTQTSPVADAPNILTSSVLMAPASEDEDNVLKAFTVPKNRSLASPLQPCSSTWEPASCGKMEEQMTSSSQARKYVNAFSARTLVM

[3] = Cytotoxicity against human EA.hy 926 cells assessed as reduction in cell viability measured after 72 hrs by MTT assay; assay type: toxicity, cell-based
518A2 [4] = assay: Cytotoxicity against human 518A2 cells assessed as reduction in cell viability measured after 72 hrs by MTT assay; assay type: functional, cell-based; conditions: 518A2, 72 h
HCT-116 [5] = assay: Cytotoxicity against human HCT-116 cells assessed as reduction in cell viability measured after 72 hrs by MTT assay; assay type: functional, cell-based; conditions: HCT-116, 72 h
HCT-116 [6] = assay: Cytotoxicity against p53-deficient human HCT-116 cells assessed as reduction in cell viability measured after 72 hrs by MTT assay; assay type: functional, cell-based; conditions: HCT-116, 72 h
HT-29 = assay: Cytotoxicity against human HT-29 cells assessed as reduction in cell viability measured after 72 hrs by MTT assay; assay type: functional, cell-based; conditions: HT-29, 72 h
KB-V1 [7] = assay: Cytotoxicity against human multidrug-resistant KB-V1 cells assessed as reduction in cell viability measured after 72 hrs by MTT assay; assay type: functional, cell-based; conditions: KB-V1, 72 h
KB-V1 [8] = assay: Cytotoxicity against human multidrug-resistant KB-V1 cells assessed as reduction in cell viability measured after 72 hrs in presence of verapamil by MTT assay; assay type: functional, cell-based; conditions: KB-V1, 72 h
[9] = Cytotoxicity against human U-87 cells assessed as reduction in cell viability measured after 72 hrs by MTT assay; assay type: functional, cell-based, U-87MG ATCC; conditions: U-87 MG
HeLa = assay: Cytotoxicity against human HeLa cells assessed as reduction in cell viability measured after 72 hrs by MTT assay; assay type: functional, cell-based
[10] = Cytotoxicity against HDFa cells assessed as reduction in cell viability at 0.0005 to 100 uM measured after 72 hrs by MTT assay; assay type: toxicity, cell-based; conditions: human, dose 0.0005-100 µM
Sus scrofa = organism: Sus scrofa; assay: Inhibition of porcine brain tubulin polymerization at 5 uM measured at 10 mins interval for 100 mins by turbidimetric assay; assay type: tissue-based
Tubulin (Homo sapiens) [11] = target: T1, Tubulin (Homo sapiens) (UniProt P68371+Q9H4B7+P0DPH7+P68366+Q13509+Q71U36+P04350+Q3ZCM7+P07437+P68363+Q9BQE3+Q6PEY2+Q13885+Q9BVA1+Q9BUF5); assay: Induction of microtubule fragmentation in human 518A2 cells at 25 nM measured after 24 hrs by immunofluorescence assay; assay type: cell-based
Tubulin (Homo sapiens) [12] = target: T1, Tubulin (Homo sapiens); assay: Induction of microtubule fragmentation in human 518A2 cells assessed as appearance of area with dorsal stress fibre at 25 nM measured after 24 hrs by immunofluorescence assay; assay type: cell-based
Tubulin (Homo sapiens) [13] = target: T1, Tubulin (Homo sapiens); assay: Induction of microtubule fragmentation in human 518A2 cells assessed as appearance of area with transverse arcs at 25 nM measured after 24 hrs by immunofluorescence assay; assay type: cell-based
[14] = target: T2, Caspase-3/Caspase-7 (Homo sapiens) (UniProt P42574+P55210); assay: Activation of caspase-3/7 activity in human 518A2 cells at 25 nM preincubated for 24 hrs followed by caspase-3/7 fluorogenic substrate addition and measured after 60 mins by fluorescence assay; assay type: cell-based; conditions: filed as activator, time 25.0 hrs
T2 sequence (P42574 whole entry, looked up): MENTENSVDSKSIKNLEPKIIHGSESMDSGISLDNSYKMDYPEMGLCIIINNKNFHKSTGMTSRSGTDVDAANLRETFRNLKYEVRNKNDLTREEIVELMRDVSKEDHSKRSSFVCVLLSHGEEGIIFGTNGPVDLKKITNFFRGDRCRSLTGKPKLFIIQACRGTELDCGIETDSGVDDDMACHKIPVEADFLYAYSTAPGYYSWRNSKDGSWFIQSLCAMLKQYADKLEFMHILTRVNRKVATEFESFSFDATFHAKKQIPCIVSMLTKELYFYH
T2 sequence (P55210 whole entry, looked up): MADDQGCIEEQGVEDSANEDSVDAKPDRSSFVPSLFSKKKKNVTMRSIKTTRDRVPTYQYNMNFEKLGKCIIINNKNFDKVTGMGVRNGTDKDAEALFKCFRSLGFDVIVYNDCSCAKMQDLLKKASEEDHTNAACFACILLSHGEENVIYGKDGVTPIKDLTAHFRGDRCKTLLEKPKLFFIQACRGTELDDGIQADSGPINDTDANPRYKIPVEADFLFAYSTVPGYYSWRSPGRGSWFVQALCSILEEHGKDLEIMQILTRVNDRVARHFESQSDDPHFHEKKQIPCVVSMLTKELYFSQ

MCF7 = assay: Cytotoxicity against human MCF7 cells assessed as reduction in cell viability measured after 72 hrs by MTT assay; assay type: functional, cell-based; conditions: MCF7, 72 h
[15] = Hydrolytic stability of compound in DMSO-d6/D2O measured after 7 days by 1H-NMR analysis; assay type: physicochemical; conditions: 168 h; time 7 day
518A2 [16] = assay: Cell cycle arrest in human […] cells assessed as increase in accumulation at G2/M phase at 25 nM measured after 6 to 24 hrs by propidium iodide staining based FACS analysis; assay type: functional; conditions: time 6-24 hrs
518A2 [17] = assay: Cell cycle arrest in human […] cells assessed as increase in accumulation at sub-G1 phase at 25 nM measured after 6 to 24 hrs by propidium iodide staining based FACS analysis; assay type: functional; conditions: time 6-24 hrs
[18] = target: T2, Caspase-3/Caspase-7 (Homo sapiens); assay: Activation of caspase-3/7 activity in human 518A2 cells at 1 uM preincubated for 6 hrs followed by caspase-3/7 fluorogenic substrate addition and measured after 60 mins by fluorescence assay; assay type: cell-based; conditions: filed as activator, time 7.0 hrs
[19] = Effect on angiogenic activity in human EA.hy 926 cells assessed as reduction in vessel like 2D structure at 25 nM measured after 5 hrs by light microscopy; assay type: toxicity, cell-based; conditions: ea.hy 926, 5 h, 0.025 µM

IC50 [2] [nM] | Activity (Tubulin (Homo sapiens) [11]) | Activity (Tubulin (Homo sapiens) [12]) | Activity (Tubulin (Homo sapiens) [13]) | Activity [14] | SMILES | Activity [1] [%] | IC50 at 72 h [3] [nM] | IC50 (518A2 [4]) [nM] | IC50 (HCT-116 [5]) [nM] | IC50 (HCT-116 [6]) [nM] | IC50 (HT-29) [nM] | IC50 (KB-V1 [7]) [nM] | IC50 (KB-V1 [8]) [nM] | IC50 [9] [nM] | IC50 (HeLa) [nM] | Activity [10] | inhibition (Sus scrofa) | IC50 (MCF7) [nM] | Activity (518A2 [16]) | other results
130 |  |  |  |  | N#CC1=C(N)Oc2c(ccc3ccccc23)C1c1cccc(S(F)(F)(F)(F)F)c1 (stereo unspecified) |  |  |  |  |  |  |  |  |  |  |  |  |  |  | 
14 | Active | Active | Active | Active | C=CCOc1c(OC)cc(C2C(C#N)=C(N)Oc3c2ccc2ccccc32)cc1OC (stereo unspecified) | 31.3 | 15.7 | 3.6 | 193 | 15.9 | 395 | 18.7 | 15.9 | 5.7 | 22.2 | Toxic | Active | 43.3 | Active | Activity (518A2 [17]): Active
60 |  |  |  | Active | COc1cc(C2C(C#N)=C(N)Oc3c2ccc2ccccc32)cc(OC)c1OC(C)C (stereo unspecified) | 80.9 | 65.8 | 266 | 274 | 137 | 4310 | 89 | 105 | 53.1 | 72 | Toxic | Active | 265 | Active | Activity (518A2 [17]): Active
30 | Active | Active | Active | Active | CCCOc1c(OC)cc(C2C(C#N)=C(N)Oc3c2ccc2ccccc32)cc1OC (stereo unspecified) | 74.5 | 11.9 | 26.1 | 68.5 | 33.1 | 284 | 23.1 | 16.3 | 27.4 | 33.1 | Toxic | Active | 21.4 | Active | Activity (518A2 [17]): Active; Activity [19]: Toxic
400 |  |  |  |  | COc1ccc(C2C(C#N)=C(N)Oc3c2ccc2ccccc32)cc1C (stereo unspecified) |  |  |  |  |  |  |  |  |  |  |  |  |  |  | 
430 |  |  |  |  | Cc1ccc(C2C(C#N)=C(N)Oc3c2ccc2ccccc32)cc1 (stereo unspecified) |  |  |  |  |  |  |  |  |  |  |  |  |  |  | 
3200 |  |  |  |  | N#CC1=C(N)Oc2c(ccc3ccccc23)C1c1ccc(S(F)(F)(F)(F)F)cc1 (stereo unspecified) |  |  |  |  |  |  |  |  |  |  |  |  |  |  | 

The next lines start with the molecule.

SMILES | IC50 [2] [nM] | Activity (Tubulin (Homo sapiens) [11]) | Activity (Tubulin (Homo sapiens) [12]) | Activity (Tubulin (Homo sapiens) [13]) | Activity [14] | Activity [1] [%] | IC50 at 72 h [3] [nM] | IC50 (518A2 [4]) [nM] | IC50 (HCT-116 [5]) [nM] | IC50 (HCT-116 [6]) [nM] | IC50 (HT-29) [nM] | IC50 (KB-V1 [7]) [nM] | IC50 (KB-V1 [8]) [nM] | IC50 [9] [nM] | IC50 (HeLa) [nM] | Activity [10] | inhibition (Sus scrofa) | IC50 (MCF7) [nM] | Activity (518A2 [16]) | other results
CCCCOc1c(OC)cc(C2C(C#N)=C(N)Oc3c2ccc2ccccc32)cc1OC (stereo unspecified) | 30 | Active | Active | Active | Active | 87.6 | 78 | 143 | 67.4 | 172 | 671 | 84.5 | 41.6 | 46.3 | 98.9 | Toxic | Active | 103 |  | 
COc1ccc(/C=C\c2cc(OC)c(OC)c(OC)c2)cc1O [COMBRETASTATIN A4] |  | Active | Active | Active |  |  |  |  |  |  |  |  |  |  |  |  | Active |  | Active | Stability [15]: Unstable
CCOc1c(OC)cc(C2C(C#N)=C(N)Oc3c2ccc2ccccc32)cc1OC (stereo unspecified) | 14 | Active | Active | Active | Active | 78.1 | 6.2 | 25 | 22.7 | 13.1 | 269 | 20.9 | 16.5 | 10.6 | 21.9 | Toxic | Active | 28.1 | Active | Activity (518A2 [17]): Active
CN[C@@H]1C[C@H]2O[C@@](C)([C@@H]1OC)n1c3ccccc3c3c4c(c5c6ccccc6n2c5c31)C(=O)NC4 |  |  |  |  |  |  |  |  |  |  |  |  |  |  |  |  |  |  |  | Activity [18]: Active
COc1cc(C2C(C#N)=C(N)Oc3c2ccc2ccccc32)c(Br)c(OC)c1OC (stereo unspecified) | 130 |  |  |  |  |  |  |  |  |  |  |  |  |  |  |  |  |  |  | 
CSc1ccc(C2C(C#N)=C(N)Oc3c2ccc2ccccc32)cc1F (stereo unspecified) | 240 |  |  |  |  |  |  |  |  |  |  |  |  |  |  |  |  |  |  | 
CCOc1c(I)cc(C2C(C#N)=C(N)Oc3c2ccc2ccccc32)cc1OC (stereo unspecified) | 50 |  |  |  |  |  |  |  |  |  |  |  |  |  |  |  |  |  |  | 
CNC(=O)c1ccccc1Sc1ccc2c(/C=C/c3ccccn3)n[nH]c2c1 [AXITINIB] |  |  |  |  |  | 19.6 |  |  |  |  |  |  |  |  |  |  |  |  |  | 
